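Assay format: 96-well plates, 48-hour exposure. Abbreviation: GI50, concentration required for 50% inhibition of growth.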 Activity calls are given as the source filed them. Cut-off read from the data, not from the text of the source: active = GI50 up to about 1.1 µM and inactive = higher.
Tests used:
Assay in all cases: NCI-60 cell line screen, 48 h
[1] = tested on: A549
[2] = tested on: HCT-116
[3] = tested on: HOP-62
[4] = tested on: K562
[5] = tested on: KM12
[6] = tested on: LOX IMVI
[7] = tested on: MCF7
[8] = tested on: Malme-3M
[9] = tested on: NCI-H522
[10] = tested on: OVCAR-4
[11] = tested on: SF-268
[12] = tested on: SF-295
[13] = tested on: SF-539
[14] = tested on: SK-MEL-28
[15] = tested on: SK-MEL-5
[16] = tested on: SN12C
[17] = tested on: SW-620
[18] = tested on: UACC-62
[19] = tested on: UO-31
[20] = tested on: RPMI-8226

| SMILES | GI50 [1] | GI50 [2] | GI50 [3] | GI50 [4] | GI50 [5] | GI50 [6] | GI50 [7] | GI50 [8] | GI50 [9] | GI50 [10] | GI50 [11] | GI50 [12] | GI50 [13] | GI50 [14] | GI50 [15] | GI50 [16] | GI50 [17] | GI50 [18] | GI50 [19] | GI50 [20] |
| --- | --- | --- | --- | --- | --- | --- | --- | --- | --- | --- | --- | --- | --- | --- | --- | --- | --- | --- | --- | --- |
| COc1ccc(/C=N/Nc2nc3ccccc3c(=O)n2-c2ccccc2)cc1 | > 100 µM (inactive) | > 100 µM (inactive) | > 100 µM (inactive) | > 100 µM (inactive) | > 100 µM (inactive) | 95.1 µM (inactive) | 3.61 µM (inactive) | > 100 µM (inactive) | > 100 µM (inactive) | > 100 µM (inactive) | > 100 µM (inactive) | > 100 µM (inactive) | > 100 µM (inactive) | > 100 µM (inactive) | > 100 µM (inactive) | > 100 µM (inactive) | > 100 µM (inactive) | 24.4 µM (inactive) | 2.28 µM (inactive) | – |
| COC1=CC(=O)c2c(c(-c3nc(C)cs3)cn2C)C1=O | 3.32 µM (inactive) | 2.99 µM (inactive) | 3.05 µM (inactive) | 2.62 µM (inactive) | 3.95 µM (inactive) | 0.804 µM (active) | 2.62 µM (inactive) | – | 1.06 µM (active) | 18.5 µM (inactive) | 6.44 µM (inactive) | 2.88 µM (inactive) | 2.2 µM (inactive) | 3.72 µM (inactive) | 1.2 µM (inactive) | 5.79 µM (inactive) | 3.24 µM (inactive) | 2.99 µM (inactive) | 4.53 µM (inactive) | 2.52 µM (inactive) |
| O=[N+]([O-])/C=C1\COCc2cc3c(cc21)OCO3 | 22 µM (inactive) | 21.2 µM (inactive) | 38.9 µM (inactive) | 27.2 µM (inactive) | 15.1 µM (inactive) | 27.2 µM (inactive) | 18.5 µM (inactive) | – | 20.7 µM (inactive) | – | 27.2 µM (inactive) | 44 µM (inactive) | 26.4 µM (inactive) | 17.5 µM (inactive) | 19.6 µM (inactive) | 22.5 µM (inactive) | 22.1 µM (inactive) | 21.1 µM (inactive) | 18.9 µM (inactive) | 21.7 µM (inactive) |
| O=C1CC(C(=O)N2CCCCC2)n2c(=O)n(-c3ccccc3)c(=O)n2C1 (centres undefined) | > 100 µM (inactive) | > 100 µM (inactive) | > 100 µM (inactive) | – | > 100 µM (inactive) | > 100 µM (inactive) | > 100 µM (inactive) | > 100 µM (inactive) | > 100 µM (inactive) | – | > 100 µM (inactive) | > 100 µM (inactive) | > 100 µM (inactive) | – | > 100 µM (inactive) | – | – | > 100 µM (inactive) | > 100 µM (inactive) | – |
| N#CI1OC(C(F)(F)F)(C(F)(F)F)c2ccccc21 | 62.5 µM (inactive) | 16.4 µM (inactive) | 57.5 µM (inactive) | 12.1 µM (inactive) | 17 µM (inactive) | 18.8 µM (inactive) | 18.9 µM (inactive) | – | 7.19 µM (inactive) | 15.1 µM (inactive) | 17.8 µM (inactive) | 45.9 µM (inactive) | 19.9 µM (inactive) | 15.5 µM (inactive) | 17.5 µM (inactive) | 23.1 µM (inactive) | > 10 µM (inactive) | 18.4 µM (inactive) | 14.6 µM (inactive) | 29.3 µM (inactive) |
| O=C1CC(c2ccccc2Cl)Oc2ccccc21 (centres undefined) | – | 45 µM (inactive) | 25.9 µM (inactive) | 17.3 µM (inactive) | 27 µM (inactive) | 40.4 µM (inactive) | 11.4 µM (inactive) | – | – | 51.9 µM (inactive) | 37.2 µM (inactive) | 40.6 µM (inactive) | 16 µM (inactive) | > 100 µM (inactive) | 32.8 µM (inactive) | – | 25.5 µM (inactive) | 45.3 µM (inactive) | 57.5 µM (inactive) | 17.5 µM (inactive) |
| COC(=O)c1ccccc1C1CN=NC12Cc1c(C)cc(C)cc1C2=O (centres undefined) | > 100 µM (inactive) | > 100 µM (inactive) | > 100 µM (inactive) | > 100 µM (inactive) | > 100 µM (inactive) | > 100 µM (inactive) | > 100 µM (inactive) | > 100 µM (inactive) | 8.34 µM (inactive) | > 100 µM (inactive) | > 100 µM (inactive) | > 100 µM (inactive) | > 100 µM (inactive) | > 100 µM (inactive) | > 100 µM (inactive) | > 100 µM (inactive) | > 100 µM (inactive) | > 100 µM (inactive) | > 100 µM (inactive) | – |
| O=C1CSC(c2c[nH]c3ccccc23)N1c1ccccc1[N+](=O)[O-] (centres undefined) | > 100 µM (inactive) | > 100 µM (inactive) | > 100 µM (inactive) | > 100 µM (inactive) | > 100 µM (inactive) | > 100 µM (inactive) | > 100 µM (inactive) | – | > 100 µM (inactive) | > 100 µM (inactive) | > 100 µM (inactive) | > 100 µM (inactive) | > 100 µM (inactive) | > 100 µM (inactive) | > 100 µM (inactive) | > 100 µM (inactive) | > 100 µM (inactive) | > 100 µM (inactive) | > 100 µM (inactive) | > 100 µM (inactive) |
| CC(=O)N1CC(C)(C)c2c(C)c(O)c(C)c(C)c21 | > 100 µM (inactive) | > 100 µM (inactive) | > 100 µM (inactive) | > 100 µM (inactive) | > 100 µM (inactive) | > 100 µM (inactive) | > 100 µM (inactive) | – | > 100 µM (inactive) | > 100 µM (inactive) | > 100 µM (inactive) | > 100 µM (inactive) | > 100 µM (inactive) | > 100 µM (inactive) | > 100 µM (inactive) | > 100 µM (inactive) | > 100 µM (inactive) | > 100 µM (inactive) | > 100 µM (inactive) | > 100 µM (inactive) |
| COc1cccc(-c2nc(O)c3ccccc3n2)c1 | 21 µM (inactive) | 22.5 µM (inactive) | 17.5 µM (inactive) | 38.5 µM (inactive) | 25 µM (inactive) | 52.6 µM (inactive) | 22.1 µM (inactive) | 21.6 µM (inactive) | 23.2 µM (inactive) | – | 19.4 µM (inactive) | 32.1 µM (inactive) | 23.3 µM (inactive) | 28.1 µM (inactive) | 24.3 µM (inactive) | 33.9 µM (inactive) | 32.9 µM (inactive) | 20.1 µM (inactive) | 22.4 µM (inactive) | – |
| Cc1c(C)c2c(c(N)c1C#N)C(=O)N(Cc1ccc(S(N)(=O)=O)cc1)C2=O | > 58.6 µM (inactive) | 32.9 µM (inactive) | 4.07 µM (inactive) | > 100 µM (inactive) | > 100 µM (inactive) | 64.6 µM (inactive) | > 75 µM (inactive) | 20.5 µM (inactive) | – | > 100 µM (inactive) | 16.5 µM (inactive) | 21.5 µM (inactive) | > 34.4 µM (inactive) | > 100 µM (inactive) | > 100 µM (inactive) | > 53.8 µM (inactive) | > 100 µM (inactive) | > 100 µM (inactive) | 97.9 µM (inactive) | > 100 µM (inactive) |
